US20150258108A1 (priority 2014, published 2015)
Values joined by “and” are separate entries in the source; they are usually repeats but may differ in a detail not shown here. Equal entries are not always repeated. “Also recorded” adds a separate entry of the source.

Key:
[1] = tested on: human OPRK (κ-opioid receptor); assay: biochemical; type: binding; settings: ΔpKi = pKi(OPRK)-pKi(OPRM)
[2] = molecular target: T1, human OPRK (κ-opioid receptor) (Homo sapiens, UniProt P41145); assay: biochemical; type: binding; settings: Ki, OPRK, [3H]-U69,593 binding; This work
T1 construct: purchased PerkinElmer Life Sciences (Boston, Mass.)
T1 sequence (P41145 whole entry): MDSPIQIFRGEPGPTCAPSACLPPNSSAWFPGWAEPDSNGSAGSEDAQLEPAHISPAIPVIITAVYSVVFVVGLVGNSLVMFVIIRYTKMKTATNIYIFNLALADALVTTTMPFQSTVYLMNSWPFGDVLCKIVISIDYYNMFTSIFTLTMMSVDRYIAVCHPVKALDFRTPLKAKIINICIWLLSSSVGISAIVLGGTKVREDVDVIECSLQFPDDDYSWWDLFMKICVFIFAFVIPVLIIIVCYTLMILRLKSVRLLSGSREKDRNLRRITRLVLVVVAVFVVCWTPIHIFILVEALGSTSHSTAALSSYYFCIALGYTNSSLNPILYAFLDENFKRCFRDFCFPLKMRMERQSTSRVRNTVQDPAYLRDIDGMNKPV

OPRK [3] = molecular target: T2, OPRK (Homo sapiens, UniProt P41145); assay: cell-based; set-up: host or cells: CHO-K1
T2 sequence (P41145 whole entry): as above

[4] = QT interval (ΔQTcl) in opioid-dependent patients; type: in vivo, human; settings: 60, 120, 180 mg, first 24 hours; correlated with serum concentration
Procedure: Patients' QT intervals were evaluated at regular time points throughout the study.

[5] = Time to resumption of OST and opiate withdrawal scales (COWS, SOWS, OOWS); type: in vivo, human; settings: opioid-dependent patients
[6] = molecular target: human OPRM (μ-opioid receptor) (Homo sapiens, UniProt P35372); assay: biochemical; type: binding; set-up: expressed in transfected cells; host or cells: CHO-K1 (cell lines provided by Dr. Toll, Torrey Pines Institute)
Sequence of human OPRM (μ-opioid receptor) (P35372 whole entry): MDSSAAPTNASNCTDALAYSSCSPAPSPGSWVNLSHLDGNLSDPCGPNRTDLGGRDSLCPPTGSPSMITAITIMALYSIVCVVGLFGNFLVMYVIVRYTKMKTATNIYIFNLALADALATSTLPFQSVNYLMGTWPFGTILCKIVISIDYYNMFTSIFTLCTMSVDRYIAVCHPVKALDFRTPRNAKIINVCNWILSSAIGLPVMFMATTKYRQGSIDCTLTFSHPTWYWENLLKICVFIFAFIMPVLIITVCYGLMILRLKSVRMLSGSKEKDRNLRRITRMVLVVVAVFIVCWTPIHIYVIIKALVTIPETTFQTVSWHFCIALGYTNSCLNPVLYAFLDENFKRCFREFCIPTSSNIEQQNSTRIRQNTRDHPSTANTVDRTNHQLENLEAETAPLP

[7] = Pharmacokinetics in opioid-dependent patients (Phase IB); settings: 60, 120, 180 mg cohorts
OPRK [8] = molecular target: T2, OPRK; assay: biochemical; set-up: purchased PerkinElmer Life Sciences (Boston, Mass.)
[9] = tested on: OPRD: human opioid receptor delta; settings: previously shown; cited from earlier work
[10] = Ascending single-dose pharmacokinetics of noribogaine in healthy volunteers; settings: for CL/F / Tmax: fasted healthy males, mean (SD), n = 6; for mean AUC/24 hr / mean AUC/24: fasting, serum
OPRK [11] = molecular target: T2, OPRK; assay: Activation and inhibition bias quantification G-protein/Beta-arrestin2
Procedure: Coupling efficiency (e-coupling) values indicated the relationship between the apparent binding affinity Ki versus the apparent functional potency EC50 of a given agonist ligand and used the equation pKi-pEC50. […] For inhibitory ligands, e-signal was calculated using maximal level of inhibition (Imax) normalized from 0 (basal, buffer) to 1 (agonist without inhibitor). Bias-coupling (quantification of pathway bias) was evaluated by subtracting the EC50 or the Ke issued from the G-protein pathway assays by those issued from β-arrestin pathway assays for a given ligand and in a linear (nM) scale. Bias-efficacy in favor of the G-protein pathway was evaluated by dividing the functional activation and the functional inhibition maximum responses (e-signal) from the G-protein pathway by the beta-arrestin pathway assays for a given ligand.

human OPRM [12] = molecular target: T3, human OPRM (Homo sapiens, UniProt P35372); assay: biochemical; type: biochemical; set-up: expressed in transfected cells; host or cells: CHO-K1 (cell lines provided by Dr. Toll, Torrey Pines Institute)
T3 sequence (P35372 whole entry): as above

[13] = Safety and tolerability of noribogaine in healthy humans; type: in vivo, human
Procedure: Safety and tolerability of noribogaine were tested in the group of volunteers from Example 1. Cold pressor testing was conducted in 1° C. water according to the method of Mitchell et al. (J. Pain 5:233-237, 2004) pre-dose, 6, 24, 48, 72 and 216 hours post-dosing. Safety evaluations included clinical monitoring, recording of adverse events (AEs), safety laboratory tests, vital signs, ECG telemetry from −2 h to 6 h after dosing, and 12-lead electrocardiograms (ECGs) up to 216 hours post-dosing.

human OPRM [14] = molecular target: T3, human OPRM; assay: cell-based; type: cell-based; set-up: host or cells: CHO-K1

CC[C@H]1CC2C[C@H]3c4[nH]c5ccc(O)cc5c4CCN(C2)C13 [Noribogaine]
Specificity ΔpKi [1]: 0.4 and 0.3
Ki [2]: 720 nM and 700 nM
EC50 (OPRK [3]): ~265 nM
IC50 (OPRK [3]): 1450 ± 1100 nM
Kb (OPRK [3]): 251 nM
Beta-Arrestin2 Pathway e-coupling (OPRK [3]; OPRK, Activation): −0.43
Beta-Arrestin2 Pathway e-signal (OPRK [3]; OPRK, Activation): 0.13
inhibition of agonist response (up to) (OPRK [3]; OPRK, Dynorphin A at EC80): ~60%
IC50 (OPRK [3]; OPRK, Dynorphin A at EC80 (370 nM Dyn-A)): 1450 nM
Beta-Arrestin2 Pathway e-coupling (OPRK [3]; OPRK, Inhibition): −0.44
Beta-Arrestin2 Pathway e-signal (OPRK [3]; OPRK, Inhibition): 0.60
Efficacy (Emax) (OPRK [3]; OPRK, activation, % of dynorphin A maximal stimulation): 12% and 12.6%
e-coupling (OPRK [3]; OPRK, activation, pKi-pEC50): −0.43
Ke (OPRK [3]; OPRK, inhibition of Dynorphin A at EC80): 262 nM
e-coupling (OPRK [3]; OPRK, inhibitory component, pKi-pKe): −0.44
QT interval prolongation (ΔQTcl) [4]: dose-dependent increase in QT interval prolongation
withdrawal symptoms (COWS, OOWS, SOWS) over first six hours ([5]; 120 mg): generally experienced fewer withdrawal symptoms than the other patients
average time to resumption of opioids (OST) ([5]; single 120 mg dose): greater than 20 hours
Ki [6]: 1520 ± 300 nM
Maximum serum concentration (Cmax) versus dose [7]: increased in a dose-dependent manner
Efficacy (Emax) (OPRK [8]): 72%
Efficacy (inhibition) (OPRK [8]): 25%
G-protein Pathway e-coupling (OPRK [8]): 1.72 and 1.08
IC50 (OPRK [8]): 100 to 300 µM
e-coupling (OPRK [8]): 1.08 and 1.22 and 1.72
own reduced signal level to which rival agonists are leveled down (OPRK [8]): 70%
EC50 (OPRK [8]; EC50): 8.75 µM and 8.7 µM
EC50 (OPRK [8]; EC50 (potency)): 8.75 µM and 9 µM
Kb (OPRK [8]; Ke): 15 µM and 24 µM
Kb (OPRK [8]; pEC50, pKe): 12.6 µM and 39.8 µM
Emax (OPRK [8]; read-out: maximal efficacy relative to Dynorphin A): 75%
fold less affine at OPRD than at OPRK [9]: ~30 ×
CL/F ([10]; 3 mg single oral dose): 41.4 (7.0) L/h
CL/F ([10]; 10 mg single oral dose): 42.3 (12.0) L/h
Tmax ([10]; 30 mg noribogaine single oral dose): 1.75 h
CL/F ([10]; 30 mg single oral dose): 46.9 (16.4) L/h
Tmax ([10]; 60 mg noribogaine single oral dose): 1.75 h
CL/F ([10]; 60 mg single oral dose): 34.0 (11.4) L/h
Cmax and AUC versus dose ([10]; 3-60 mg single oral doses): increased linearly with dose
time of peak concentrations after oral noribogaine dosing ([10]; across dose groups, healthy volunteers): 2 to 3 h
Mean half-life ([10]; across dose groups, healthy volunteers, plasma): 28 to 50 h
Vd ([10]; male, human, plasma, oral): 1420 to 3090 L
mean AUC/24 hr ([10]; single dose of 3 mg noribogaine free base): 3.1 ng/mL
mean AUC/24 hr ([10]; single dose of 10 mg noribogaine free base): 10.6 ng/mL
mean AUC/24 ([10]; single dose of 30 mg noribogaine free base): 29.2 ng/mL
mean AUC/24 ([10]; single dose of 60 mg noribogaine free base): 61 ng/mL
Bias G-protein/Beta-arrestin2: Bias-coupling (OPRK [11]; Activation): 32
Bias G-protein/Beta-arrestin2: Bias-efficacy (OPRK [11]; Activation): 0.59
Bias G-protein/Beta-arrestin2: Bias-efficacy (OPRK [11]; Inhibition): −0.35
Bias G-protein/Beta-arrestin2: Bias-coupling (OPRK [11]; Inhibition (fold more potent at inhibiting Dynorphin A-induced β-arrestin-2 recruitment than G-protein activation)): 144
IC50 (human OPRM [12]): 134 ± 17 µM
Ke (human OPRM [12]): 19 ± 5 µM
Ke (functional inhibition constant) (human OPRM [12]): 19.203 µM
antagonist potency, OPRM G-protein pathway (human OPRM [12]): 20 µM
e-coupling (human OPRM [12]): 1.02 and 1.10
EC50 (human OPRM [12]; EC50): 16.1 µM
Kb (human OPRM [12]; Ke): 28 ± 14 µM
EC50 (human OPRM [12]; approximated EC50): ~16 µM
Kb (human OPRM [12]; pEC50, (Ke): pKe): 20 µM
adverse events reported ([13]; 3 mg dose group, healthy volunteers): five adverse events were reported by two subjects
adverse events reported ([13]; 10 mg dose group, healthy volunteers): one adverse event was reported by single subjects
adverse events reported ([13]; 30 mg dose group, healthy volunteers): one adverse event was reported by single subjects
oximetry, capnography, respiratory rate ([13]; 3-60 mg, healthy volunteers): no changes in oximetry or capnography, or changes in respiratory rate
vital signs and safety laboratory tests ([13]; 3-60 mg, healthy volunteers): no changes in vital signs or safety laboratory tests of note
Adverse events: Mild ([13]; Dose 3 mg, healthy volunteers): Dizziness; also recorded: Epistaxis; also recorded: Headache; also recorded: Back pain
Adverse events: Moderate ([13]; Dose 3 mg, healthy volunteers): Headache
Adverse events: Mild ([13]; Dose 10 mg, healthy volunteers): Headache
Adverse events: Mild ([13]; Dose 30 mg, healthy volunteers): Headache
QTcF values ([13]; any time, all dose groups 3-60 mg, healthy volunteers): ≤ 500 ms
single increase in QTcF ([13]; one subject dosed with 10 mg, 24 hours post-dosing): > 60 ms
EC50 (human OPRM [14]): ~1150 nM
Efficacy (human OPRM [14]): 3%
IC50 (human OPRM [14]): ~57 µM
Ke (human OPRM [14]): ~4.8 µM
agonism at OPRM β-arrestin-2 recruitment (human OPRM [14]): not an agonist at OPRM
e-coupling (human OPRM [14]): ~1.10
inhibition of agonist response (up to) (human OPRM [14]): 60-100%
Kb (human OPRM [14]; pEC50, pKe): 63.1 µM
